Test results from the NIST ThermoML archive (doi:10.1021/je900596d).

Settings: Liquid; for mass density: Vibrating tube method

FC(F)=C(F)C(F)(F)F [hexafluoropropene]
Settings | mass density [kg/m3] | vapor or sublimation pressure [kPa]
353.13 K, 6254.1 kPa | 1084.82 | –
353.13 K, 6293.2 kPa | 1085.83 | –
353.13 K, 6333.5 kPa | 1086.9 | –
353.13 K, 6371.8 kPa | 1087.85 | –
353.13 K, 6409 kPa | 1088.79 | –
353.13 K, 6445.8 kPa | 1089.69 | –
353.13 K, 6484.6 kPa | 1090.62 | –
353.13 K, 6524.7 kPa | 1091.6 | –
353.13 K, 6563.9 kPa | 1092.58 | –
353.13 K, 6604.4 kPa | 1093.48 | –
353.13 K, 6642.7 kPa | 1094.43 | –
353.13 K, 6683.7 kPa | 1095.45 | –
353.13 K, 6726.1 kPa | 1096.44 | –
353.13 K, 6764 kPa | 1097.33 | –
353.13 K, 6802.8 kPa | 1098.22 | –
353.13 K, 6841.6 kPa | 1099.15 | –
353.13 K, 6882 kPa | 1100.04 | –
353.13 K, 6922.2 kPa | 1101.01 | –
353.13 K, 6960.8 kPa | 1101.88 | –
353.13 K, 7001.3 kPa | 1102.71 | –
353.13 K, 7038.1 kPa | 1103.6 | –
353.13 K, 7076.1 kPa | 1104.43 | –
353.13 K, 7114.4 kPa | 1105.3 | –
353.13 K, 7154.8 kPa | 1106.21 | –
353.13 K, 7191.9 kPa | 1106.87 | –
353.13 K, 7231.5 kPa | 1107.79 | –
353.13 K, 7270.9 kPa | 1108.59 | –
353.13 K, 7309.7 kPa | 1109.52 | –
353.13 K, 7347.2 kPa | 1110.31 | –
353.13 K, 7384.6 kPa | 1111.14 | –
353.13 K, 7426.6 kPa | 1111.94 | –
353.13 K, 7521.7 kPa | 1113.95 | –
353.13 K, 7570.3 kPa | 1114.91 | –
353.13 K, 7620.7 kPa | 1116.02 | –
353.13 K, 7669.4 kPa | 1116.98 | –
353.13 K, 7719.8 kPa | 1117.99 | –
353.13 K, 7771.4 kPa | 1119.1 | –
353.13 K, 7821.6 kPa | 1120.08 | –
353.13 K, 7875 kPa | 1121.14 | –
353.13 K, 7925.8 kPa | 1122.03 | –
353.13 K, 7977.1 kPa | 1123.21 | –
353.13 K, 8027.6 kPa | 1124.05 | –
353.13 K, 8077.8 kPa | 1124.94 | –
353.13 K, 8128 kPa | 1125.99 | –
353.13 K, 8179.4 kPa | 1126.95 | –
353.13 K, 8229.7 kPa | 1127.86 | –
353.13 K, 8281.6 kPa | 1128.88 | –
353.13 K, 8333.3 kPa | 1129.8 | –
353.13 K, 8384.4 kPa | 1130.91 | –
353.13 K, 8434.2 kPa | 1131.83 | –
353.13 K, 8483.8 kPa | 1132.74 | –
353.13 K, 8533 kPa | 1133.6 | –
353.13 K, 8585.1 kPa | 1134.64 | –
353.13 K, 8636.6 kPa | 1135.48 | –
353.13 K, 8688.1 kPa | 1136.4 | –
353.13 K, 8739.4 kPa | 1137.27 | –
353.13 K, 8787.9 kPa | 1138.25 | –
353.13 K, 8838.8 kPa | 1138.97 | –
353.13 K, 8890.6 kPa | 1140.08 | –
353.13 K, 8940.9 kPa | 1140.78 | –
353.13 K, 8990.5 kPa | 1141.72 | –
353.13 K, 9042.5 kPa | 1142.55 | –
353.13 K, 9093.8 kPa | 1143.46 | –
353.13 K, 9145.5 kPa | 1144.29 | –
353.13 K, 9199.3 kPa | 1145.07 | –
353.13 K, 9251.5 kPa | 1145.95 | –
353.13 K, 9300.6 kPa | 1146.86 | –
353.13 K, 9353.4 kPa | 1147.68 | –
353.13 K, 9405.2 kPa | 1148.61 | –
353.13 K, 9453.7 kPa | 1149.26 | –
353.13 K, 9503.3 kPa | 1150.03 | –
353.13 K, 9555.6 kPa | 1150.83 | –
353.13 K, 9607.5 kPa | 1151.69 | –
353.13 K, 9658.7 kPa | 1152.54 | –
353.13 K, 9709.8 kPa | 1153.31 | –
353.13 K, 9762.3 kPa | 1154.19 | –
353.13 K, 9811.9 kPa | 1154.85 | –
353.13 K, 9863.5 kPa | 1155.62 | –
353.13 K, 9915.1 kPa | 1156.42 | –
353.13 K, 9969.2 kPa | 1157.38 | –
353.23 K, Closed cell (Static) method | – | 2782.3
355.18 K, 2917.9 kPa | 845.6 | –
355.18 K, 2920.4 kPa | 846.43 | –
355.18 K, 2923.2 kPa | 847.74 | –
355.18 K, 2925.7 kPa | 848.75 | –
355.18 K, 2927.7 kPa | 849.49 | –
355.18 K, 2929.8 kPa | 850.21 | –
355.18 K, 2931.8 kPa | 850.86 | –
355.18 K, 2933.8 kPa | 851.6 | –
355.18 K, 2936.9 kPa | 852.8 | –
355.18 K, 2939.2 kPa | 853.64 | –
355.18 K, 2941.8 kPa | 854.46 | –
355.18 K, 2944.4 kPa | 855.06 | –
355.18 K, 2946.6 kPa | 855.85 | –
355.18 K, 2948.8 kPa | 856.52 | –
355.18 K, 2952.8 kPa | 857.85 | –
355.18 K, 2960 kPa | 859.85 | –
355.18 K, 2967.7 kPa | 861.92 | –
355.18 K, 2975.4 kPa | 863.9 | –
355.18 K, 2989.1 kPa | 868.46 | –
355.18 K, 2995.9 kPa | 870.43 | –
355.18 K, 3004.5 kPa | 872.46 | –
355.18 K, 3019.2 kPa | 876.04 | –
355.18 K, 3027.3 kPa | 878.11 | –
355.18 K, 3033.9 kPa | 879.53 | –
355.18 K, 3039.9 kPa | 880.6 | –
355.18 K, 3094.7 kPa | 890.53 | –
355.18 K, 3105.5 kPa | 892.47 | –
355.18 K, 3126.6 kPa | 896.05 | –
355.18 K, 3136.9 kPa | 897.86 | –
355.18 K, 3146.9 kPa | 899.37 | –
355.18 K, 3157.8 kPa | 901.09 | –
355.18 K, 3167.8 kPa | 902.86 | –
355.18 K, 3178.7 kPa | 904.31 | –
355.18 K, 3189.5 kPa | 906.01 | –
355.18 K, 3200.1 kPa | 907.48 | –
355.18 K, 3210.7 kPa | 909 | –
355.18 K, 3221.2 kPa | 910.46 | –
355.18 K, 3231.6 kPa | 911.83 | –
355.18 K, 3252.1 kPa | 914.62 | –
355.18 K, 3263.1 kPa | 916.04 | –
355.18 K, 3273.1 kPa | 917.41 | –
355.18 K, 3283.4 kPa | 918.63 | –
355.18 K, 3294.3 kPa | 920.14 | –
355.18 K, 3304.3 kPa | 921.35 | –
355.18 K, 3325.4 kPa | 923.75 | –
355.18 K, 3347.5 kPa | 926.36 | –
355.18 K, 3368.1 kPa | 928.74 | –
355.18 K, 3388.8 kPa | 930.98 | –
355.18 K, 3410.2 kPa | 933.28 | –
355.18 K, 3453.4 kPa | 937.53 | –
355.18 K, 3496.3 kPa | 941.66 | –
355.18 K, 3516.9 kPa | 943.53 | –
